In patent publication US20240316164A1, “ENHANCED EXPRESSION OF AN AROMATIC AMINO ACID DECARBOXYLASE (AADC) IN THE SUBSTANTIA NIGRA FOR THE TREATMENT OF PARKINSON'S DISEASE” (Northwestern University, priority 2021, published 2024):
“Also recorded” adds a separate entry of the source.

Legend:
cNdufs2−/− mice [1] = assay: Adhesive removal test; assay type: in vivo, mouse; conditions: regardless of age
Description: (§1) FIG. 4. cNdufs2^−/− mice manifest a progressive, levodopa-responsive Parkinsonism. a, Schematic diagram of the experimental protocol for Y maze test. […] Local electrical stimulation (350 μA, 2 ms) was used to evoke release. […] By P30, cNdufs2^−/− mice took longer (N=10-13 per group). e, Open-field traces in wildtype and cNdufs2^−/− mice at P30 and P100. f, Number of pauses during open field test in wildtype and cNdufs2^−/− mice. […] N=12-27per group. h-m, Gait analysis procedure and measurement schematics. h, Pictures of wildtype and cNdufs2^−/− mice footprints with representations of measurements of RF (Right Fore). RH (Right Hind). […] Box plots represent stride length in right hind paw at P100 (N=7 per group). m, Boxplots indicate swing duration in right hind paw. […] Kruskal-Wallis test: (b), (d), (f) and (g). ***P<0.001. 2-way ANOVA followed by Tukey's post hoc test (c). *P<0.05; **P<0.01; 1-way ANOVA followed by Tukey's post hoc test (i), (j), (l) and (m). Data are presented as box-and-whisker plots depicting median, quartiles, and range (b), (c), (i), (j), (l) and (m) or median and range (shaded area); (d), (f) and (g).
By P40, open-field, exploratory behavior of cNdufs2″ mice began to be interrupted by brief pauses, although the total distance traveled in the testing period was normal (FIGS. 4e-g). […]

cNdufs2−/− mice [2] = assay: Open field test; assay type: in vivo, mouse
cNdufs2−/− mice [3] = assay: Gait analysis on treadmill; assay type: in vivo, mouse
Description: as §1
(§2) FIG. 21. Behavioral phenotypes in cNdufs2^−/− mice. (a) Rearing test performance. b. […] Number of rearings begin to be impaired at P40. […] At P60, cNdufs2^−/− mice show difficulty transitioning between rearing and landing, spending much more time ‘stuck’ in an elevated posture. […] P60 and P100. […] P60 and P100. […] P60 and P100. […] P60 and P100. […] 1. […] P60 and P100. […] P60 and P100. […] P60 and P100. […] Kruskal-Wallis test: (b), and (c). *P<0.05; **P<0.01; 1-way ANOVA followed by Tukey's post hoc test: (h-o). Data are presented as median and range (shaded area).
However, by P100, cNdufs2^−/− mice had splayed hindlimbs, abnormal paw placement and alterations in stride when forced to ambulate on the treadmill (FIG. 4h-m, FIG. 21h-o). […] Because cNdufs2^−/− mice manifest a clear, levodopa-responsive Parkinsonism that is attributable to MCI dysfunction, they are referred to as MCI-Park mice.

cNdufs2−/− mice [4] = assay: Y maze associative learning test; assay type: in vivo, mouse; conditions: systemic levodopa 6 mg/kg, P30
Description: as §1
Unlike conventional PD models in which DA is depleted rapidly throughout the basal ganglia, the staging of pathology in cNdufs2^−/− mice allowed an assessment of how regional deficits in DA release are coupled to behavior. […]

cNdufs2−/− mice [5] = assay: Rearing test; assay type: in vivo, mouse; conditions: levodopa 3 mg/kg, P20-P120
Description: as §2
By P40, open-field, exploratory behavior of cNdufs2″ mice began to be interrupted by brief pauses, although the total distance traveled in the testing period was normal (FIGS. 4e-g). Later, open-field behavior of cNdufs2^−/− mice became progressively more impaired and total distance traveled began to fall (FIG. 4g). […] Another common exploratory behavior of mice involves rearing. When placed in a tall glass cylinder, mice rear, land and rear again in a different part of the cylinder; in a 3-minute period, mice typically rear and land 15-20 times. At P30, rearing behavior of cNdufs2^−/− mice was normal, but by P60 cNdufs2^−/− mice appeared to have difficulty transitioning between rearing and landing, spending much more time ‘stuck’ in an elevated posture. […]

SN dopaminergic neurons = assay: Cytosolic ATP/ADP ratio with PercevalHR in ex vivo brain slice; assay type: cell-based, mouse; conditions: wildtype dopaminergic neurons, inhibition of mitochondrial complex V
Description: FIG. 1. Loss of Ndufs2 function triggers mitochondrial and genomic adaptations in SN DA Neurons. a, Schematic of a coronal section of the midbrain highlighting the sampled region of SNc (orange). b, Meta-analysis of RNAseq data obtained by Cre-dependent RiboTag mRNA precipitation from P40 wildtype mice. […] Scale bar: 10 μm. e, Representative TMRM fluorescence time series after the application of carboxyatractyloside, the adenine nucleotide transporter inhibitor (iANT). f, Box plots of TMRM after blocking ANT with carboxyatractyloside and depolarizing mitochondria with FCCP (wildtype, P40 n=8 (1 per section), 6 mice; cNdufs2^−/−, P20 n=4 (1 per section), 3 mice; P40 n=5 (1 per section), 4 mice)). g, Cartoon representing the activity of the ETC and ANT following Ndufs2 deletion. h, Electron micrographs of SN DA neurons. The nucleus and the mitochondria are highlighted in green and red, respectively. […] The percentage of abnormal mitochondria was calculated as the ration between the area occupied by abnormal mitochondria over the total area occupied by mitochondria for each cell. […] Scale bar: 15 μm. p, Representative time-lapse measurements of Perceval-HR fluorescence ratio. […]

[6] = levodopa 6 mg/kg, P30, P60 and P100

With `N[C@@H](Cc1ccc(O)c(O)c1)C(=O)O` [levodopa] the adhesive removal speed (cNdufs2−/− mice [1]) was “improved adhesive removal speed regardless of age”, the “number of pauses during open field test” value (cNdufs2−/− mice [2]; cNdufs2−/− mice, levodopa 3 mg/kg) was “rescued this deficit” and the “open-field performance (pauses, total distance traveled)” value (cNdufs2−/− mice [2]; cNdufs2−/− mice, levodopa treatment) was “improved performance in this task”. The open-field ambulation (cNdufs2−/− mice [2]; control MCI-Park mice without AADC, low systemic levodopa dose 1.5 mg/kg, ~P100, 1.5 mg/kg) was “had no discernible effect”, the “gait deficits (splayed hindlimbs, abnormal paw placement, alterations in stride)” value (cNdufs2−/− mice [3]; P100) was “ameliorated some, but not all of these deficits” and the “swing duration in right hind paw” value (cNdufs2−/− mice [3]; levodopa 6 mg/kg) was “not rescued”. For the same compound, the “brake duration in right hind paw” value (cNdufs2−/− mice [3]; [6]) was “did not rescue this phenotype”, the “propulsion time in right hind paw” value (cNdufs2−/− mice [3]; [6]) was “did not rescue this phenotype” and the “step sequence in right hind paw” value (cNdufs2−/− mice [3]; [6]) was “did not rescue this phenotype”. For the same compound, the “stride frequency in right hind paw” value (cNdufs2−/− mice [3]; [6]) was “did not rescue this phenotype”, the “hind limb stance width” value (cNdufs2−/− mice [3]; levodopa 6 mg/kg, P100) was “rescued this phenotype” and the “paw area in right hind paw” value (cNdufs2−/− mice [3]; levodopa 6 mg/kg, P100) was “rescued this phenotype at P100”. The “stance duration in right hind paw” value (cNdufs2−/− mice [3]; levodopa 6 mg/kg, P100) was “rescued this phenotype at P100”, the “associative learning (memory) task, percentage of correct choices” value (cNdufs2−/− mice [4]) was “restored” and the “number of rearings in a 3-minute period” value (cNdufs2−/− mice [5]) was “did not rescue this deficit”. For the same compound, the rearing time (cNdufs2−/− mice [5]) was “did not lessen this deficit; also recorded: did not rescue this deficit”.

For `CC[C@H]1/C=C/C=C/C[C@@H](C)[C@H](O)[C@@](C)(O)C(=O)[C@@H](C)[C@H](O)[C@@H](C)C(=O)[C@@H](C)[C@H](O)[C@@H](C)/C=C/C(=O)O[C@@H]2[C@H](C)[C@H](CC1)O[C@]1(CC[C@H](C)[C@H](C[C@@H](C)O)O1)[C@H]2C` [oligomycin], the “cytosolic ATP/ADP ratio (ATP levels)” value (SN dopaminergic neurons) was “caused a precipitous drop in ATP levels”.
